Test results taken from patent publication US9993462B2, “Hydantoin derivative-containing pharmaceutical composition” (Chugai Seiyaku Kabushiki Kaisha, priority 2014, dated 2018).

Legend:
[1] = test system: human articular chondrocytes; assay: Proteoglycan synthesis by human articular chondrocytes (35S-sulfate incorporation); assay type: cell-based; conditions: cultured for 13 days
Method: After purchase of cryopreserved human articular chondrocytes (Lot 2867, Cell Applications Inc.), the cells were thawed in a 37° C. water bath, 15 mL of Basal Medium supplemented with 10% Growth Supplement (Growth Medium, Cell Applications Inc.) was placed in a T75 culture flask (CORNING, Corning Japan K. K.) to culture the cells, and exchanged the next day with 15 mL of Growth Medium; and the cells were cultured for three days. Growth Medium was then removed, and HBSS (Cell Applications Inc.) was used to wash the chondrocyte layer. With addition of 1 mL of trypsin/EDTA solution (Cell Applications Inc.), this was left to stand at room temperature for approximately five minutes, and chondrocytes were detached from the flask. With 10 mL of Neutralization solution (Cell Applications Inc.) added, Bulker-Turk hemocytometer was used to determine the cell count, and the cells were then transferred to a 15-mL test tube for centrifugation (1,200 rpm for five minutes, Tomy Seiko Co., Ltd.) to produce a chondrocyte pellet. The supernatant was discarded, and the cells were placed in a 1.2% sodium alginate solution (25 mmol/L HEPES/150 mmol/L sodium chloride solution, pH7.0) at 2×10^6 cells/mL. This was drawn into a 1-mL syringe (Terumo Corporation) equipped with a 22G injection needle, five drops were added to each well of a 24-well plate (Corning Japan K.K.) containing 2 mL of 102 mmol/L aqueous CaCl2 solution, and this was left to stand for five minutes to form beads. Subsequently, this was washed three times with a 150 mmol/L sodium chloride solution and incubated for one day in Growth Medium, and the medium was exchanged with Basal Medium supplemented with 1% Growth supplement (Cell Applications Inc.). In this procedure, the following factors were added to the medium, and the cells were cultured for 13 days with three times of medium exchange performed per week.
On day 12 of culturing, ^35S-labeled sulfuric acid (PerkinElmer Japan Co., Ltd.) was added at 370 kBq/well, and the medium was collected 24 hours later into a test tube and stored at 4° C. To the alginate gel, a 55 mmol/L sodium citrate solution (Nacalai Tesque, Inc.; 1 mL/well) was added, and this was incubated at 37° C. for ten minutes for solation. This was collected into a microtube (Eppendorf AG) and then centrifuged (1,200 rpm, five minutes) to produce a chondrocyte pellet. […] The glass filter was transferred to a liquid scintillation counter vial, 5 mL of scintillator (Hionic-Fluor, PerkinElmer Japan Co., Ltd.) was added and radioactivity was measured on a liquid scintillation counter (TRI-CARB, PerkinElmer Japan Co., Ltd.).
The remaining 0.1 mL of the digested solution was used for DNA quantification. […]

normal rats = assay: Growth plate cartilage histology after four weeks of repeated oral administration to normal rats; assay type: in vivo, rat
Method: Female RccHan: WIST rats obtained from Japan Laboratory Animals Inc. were acclimated for at least one week under standard laboratory conditions of 20° C. to 26° C. and 30% to 70% humidity, and then used in experiments. The rats had free access to tap water and a standard rodent diet (CE-2, Clea Japan Inc.) containing 1.1% calcium, 1.0% phosphoric acid, and 250 IU/100 g vitamin D3.
After body weight measurement for the six-week old rats, they were divided into groups so that the average body weight of each group of ten rats would be even. From the day following group division, all rats were administered once a day repeatedly for four weeks. The solvent (vehicle) was orally administered to the Vehicle-Control group. To the Compound 7-6 mg/kg group, Compound 7-60 mg/kg group, and Compound 7-600 mg/kg group, Compound 7 suspended in the vehicle was administered orally at a dose of 6 mg/kg, 60 mg/kg, and 600 mg/kg, respectively. For all groups, the volume of administration was 2 mL/kg. Propylene glycol (special grade, Kanto Chemical Co., Inc.) was used for the vehicle. The rats were euthanized under anesthesia one day after the final administration by collecting blood from the abdominal aorta, and then autopsy was performed to collect the femur. The femur was fixed using a 10% neutral buffered formalin solution, and after demineralization, samples of paraffin-embedded tissue sections (hematoxylin-eosin stained) were prepared. Distal ends of the femur of the produced samples were observed histopathologically under a light microscope.

[2] = 60 mg/kg oral once a day for four weeks, 10 per group
[3] = 600 mg/kg oral once a day for four weeks, 10 per group

Cc1cc(N2C(=O)NC(=O)C2(C)C)cc(C)c1CCS(=O)(=O)N1CCC2(CC1)N=C(c1ccc(OC(F)(F)F)cc1)NC2=O [Compound 7, 1-(3,5-dimethyl-4-(2-((4-oxo-2-(4-(trifluoromethoxy)phenyl)-1,3,8-triazaspiro[4.5]deca-1-en-8-yl)sulfonyl)ethyl)phenyl)-5,5-dimethylimidazolidine-2,4-dione]
radioactivity (proteoglycan synthesis, cpm/μg DNA) relative to the vehicle control ([1]; 10^−5 mol/L): 10 fold | radioactivity (proteoglycan synthesis, cpm/μg DNA) relative to the vehicle control ([1]; 10^−6 mol/L): 3 fold | Number of cases in which growth plate cartilage thickening was observed, Grade 1 (normal rats; [2]): 5 | Number of cases in which growth plate cartilage thickening was observed, Grade 2 (normal rats; [2]): 3 | Number of cases in which growth plate cartilage thickening was observed, Overall (normal rats; [2]): 8 | Number of cases in which growth plate cartilage thickening was observed, Grade 3 (normal rats; [3]): 1 | Number of cases in which growth plate cartilage thickening was observed, Grade 4 (normal rats; [3]): 9 | Number of cases in which growth plate cartilage thickening was observed, Overall (normal rats; [3]): 10 | thickening of the femoral growth plate cartilage in comparison to the Vehicle-Control group (in words) (normal rats; 6, 60, 600 mg/kg oral once a day for four weeks): dose-dependent thickening | width of a representative growth plate cartilage (normal rats; one individual of the 600 mg/kg group, from the tissue image of FIG. 8 (Vehicle-Control individual approximately 390 μm)): approximately 2940 μm
